Results: ChEMBL document CHEMBL5608189, “Design and synthesis of unique indole-benzosulfonamide oleanolic acid derivatives as potent antibacterial agents against MRSA” (Eur J Med Chem, 2024)
In brackets after ≈: the same amount, converted by molar mass. Activity calls are given as the source filed them. The rule behind the calls is not given here.

How the values were obtained:
Staphylococcus aureus [1] = test: Antibacterial activity against Staphylococcus aureus ATCC 6538 assessed as inhibition of bacterial growth at 2 to 4 times MIC measured every 2 hrs for 24 hrs by time kill assay relative to control; type: functional
Staphylococcus aureus [2] = test: Antibacterial activity against methicillin-resistant Staphylococcus aureus infected in female C57BL/6 mouse wound model assessed as log reduction in viable bacterial count at 10 mg/kg administered twice on wounds with 6 hrs interval and measured for 7 days; type: functional; settings: time 7 day
Staphylococcus aureus [3] = test: Antibacterial activity against methicillin-resistant Staphylococcus aureus assessed as delay in bacterial growth at 0.5 times MIC measured every 2 hrs for 24 hrs by time kill assay; type: functional, organism-based
Staphylococcus aureus [4] = test: Antibacterial activity against methicillin-resistant Staphylococcus aureus assessed as inhibition of bacterial growth at 1 times MIC measured every 2 hrs for 24 hrs by time kill assay; type: functional, organism-based
Staphylococcus aureus [5] = test: Antibiofilm activity in methicillin-resistant Staphylococcus aureus assessed as eradication of formed biofilm by measuring reduction in biofilm mass at 1 times MIC measured after 24 hrs by crystal violet staining based analysis relative to control; type: functional; set-up: scale not given: the % may be the effect or the level left
Staphylococcus aureus [6] = test: Bactericidal activity against Staphylococcus aureus ATCC 29213 measured after 24 hrs; type: functional
[7] = Toxicity in female C57BL/6 mouse assessed as edema in skin at 10 to 30 mg/kg administered daily for 3 days; type: organism-based; settings: in vivo, 72 h, dose 10-30 mg/kg, time 3 day
[8] = Toxicity in female C57BL/6 mouse assessed as erythema in skin at 10 to 30 mg/kg administered daily for 3 days; type: organism-based; settings: in vivo, 72 h, dose 10-30 mg/kg, time 3 day
Staphylococcus aureus [9] = test: Induction of intracellular ROS accumulation in methicillin-resistant Staphylococcus aureus assessed as number of fluorescence cells at 8 times MIC incubated for 6 hrs by DCFH-DA staining based flow cytometry analysis (reference value: 3.88)
Staphylococcus aureus [10] = test: Antibacterial activity against methicillin-resistant Staphylococcus aureus measured after 24 hrs by susceptibility assay; type: functional

CC1(C)CC[C@]2(C(=O)NS(=O)(=O)c3ccc(Cl)cc3)CC[C@]3(C)C(=CC[C@@H]4[C@@]5(C)Cc6c([nH]c7c(C(=O)O)cccc67)C(C)(C)[C@@H]5CC[C@]43C)[C@@H]2C1
inhibition (INH) (Staphylococcus aureus [1]): 100% | log(activity) (Staphylococcus aureus [2]): ~1.6 | Activity (Staphylococcus aureus [3]): Active | Activity (Staphylococcus aureus [4]): Active | Activity (Staphylococcus aureus [5]): 52% | MBC (Staphylococcus aureus [6]): 2 µM (≈ 1.49 µg/mL) | Activity [7]: Non-Toxic | Activity [8]: Non-Toxic | Activity (Staphylococcus aureus [9]): 1.99 | MIC (Staphylococcus aureus [10]): 1 µM (≈ 0.745 µg/mL)
